Results: patent US20240270751A1, “Pyrazolopyridinone Compounds” (BeiGene Ltd., priority 2021, published 2024)

Assays:
[1] = target: DGKα (Homo sapiens (Human), UniProt P23743); test: Biochemical DGK IC50 assay, DGKα ADP-Glo assay; conditions: 7.5 nM enzyme, 140 μM ATP, 80 μM DAG
Summary of the method: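 ADP-Glo read-out with full-length DGKα on DAG/PS lipid micelle substrate in 25 mM HEPES pH 7.0, 0.5 mM EDTA, 160 mM octyl β-D-glucopyranoside. Compound final concentrations spanned 1.55˜10000 nM or 23.3˜150000 nM.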

[2] = target: DGKζ (Homo sapiens (Human), UniProt Q13574); test: Biochemical DGK IC50 assay, DGKζ ADP-Glo assay; conditions: 0.5 nM enzyme, 140 μM ATP, 80 μM DAG; read-out: DGKζ ADP-Glo assay IC50
DGKζ, sequence (Q13574 other isoform, or with tags, fused parts or gaps): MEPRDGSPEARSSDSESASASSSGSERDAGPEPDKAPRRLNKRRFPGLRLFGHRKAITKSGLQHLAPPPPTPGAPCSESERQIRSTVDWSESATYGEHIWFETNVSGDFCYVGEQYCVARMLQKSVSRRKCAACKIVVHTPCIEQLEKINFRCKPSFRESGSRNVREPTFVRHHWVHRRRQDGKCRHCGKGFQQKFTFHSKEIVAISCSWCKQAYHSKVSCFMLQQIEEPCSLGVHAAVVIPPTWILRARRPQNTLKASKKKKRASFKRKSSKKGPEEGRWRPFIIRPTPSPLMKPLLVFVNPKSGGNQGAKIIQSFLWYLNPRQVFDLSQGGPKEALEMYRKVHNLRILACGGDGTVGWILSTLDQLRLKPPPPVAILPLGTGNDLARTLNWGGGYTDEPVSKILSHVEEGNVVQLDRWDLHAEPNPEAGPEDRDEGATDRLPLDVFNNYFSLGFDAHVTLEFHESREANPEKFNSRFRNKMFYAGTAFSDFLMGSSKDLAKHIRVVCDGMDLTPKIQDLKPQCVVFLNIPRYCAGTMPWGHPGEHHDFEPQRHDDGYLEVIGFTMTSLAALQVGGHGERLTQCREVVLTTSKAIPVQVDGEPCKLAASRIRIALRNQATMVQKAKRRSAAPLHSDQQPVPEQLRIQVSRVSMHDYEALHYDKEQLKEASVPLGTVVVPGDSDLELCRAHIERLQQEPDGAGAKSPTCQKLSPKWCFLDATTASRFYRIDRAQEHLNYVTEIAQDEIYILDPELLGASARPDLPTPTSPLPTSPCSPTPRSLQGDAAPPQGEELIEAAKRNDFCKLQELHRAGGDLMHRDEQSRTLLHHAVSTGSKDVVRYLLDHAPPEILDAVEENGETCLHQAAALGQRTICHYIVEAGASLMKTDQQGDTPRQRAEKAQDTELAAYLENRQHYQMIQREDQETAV
Summary of the method: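 Full-length human DGKζ, His-TEV tagged and purified from baculovirus-infected Sf9 cells, assayed by ADP-Glo with DAG/PS lipid micelle substrate prepared in 25 mM HEPES pH 7.0 with octyl glucoside. Final compound concentrations spanned 1.55–10000 nM or 23.3–150000 nM.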

DGKα, sequence (P23743 whole entry): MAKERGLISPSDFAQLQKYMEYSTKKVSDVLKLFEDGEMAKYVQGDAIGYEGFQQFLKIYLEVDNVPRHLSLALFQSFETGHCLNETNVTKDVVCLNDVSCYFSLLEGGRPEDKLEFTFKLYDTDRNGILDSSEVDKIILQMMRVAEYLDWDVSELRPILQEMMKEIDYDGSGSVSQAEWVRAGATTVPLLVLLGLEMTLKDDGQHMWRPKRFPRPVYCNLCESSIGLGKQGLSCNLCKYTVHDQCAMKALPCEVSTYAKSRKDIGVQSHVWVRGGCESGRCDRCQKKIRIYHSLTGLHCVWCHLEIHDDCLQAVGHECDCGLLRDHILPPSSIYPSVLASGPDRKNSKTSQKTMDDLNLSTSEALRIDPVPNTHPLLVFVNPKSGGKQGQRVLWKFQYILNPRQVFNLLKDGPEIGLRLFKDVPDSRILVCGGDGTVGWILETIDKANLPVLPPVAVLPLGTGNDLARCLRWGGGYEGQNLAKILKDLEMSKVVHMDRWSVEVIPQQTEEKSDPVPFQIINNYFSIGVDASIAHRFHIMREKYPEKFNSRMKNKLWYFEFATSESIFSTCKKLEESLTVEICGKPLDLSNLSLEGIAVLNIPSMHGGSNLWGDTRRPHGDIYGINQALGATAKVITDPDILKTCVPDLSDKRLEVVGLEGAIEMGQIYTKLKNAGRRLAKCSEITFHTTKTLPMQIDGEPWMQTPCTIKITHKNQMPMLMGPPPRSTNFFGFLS

| IC50 [1] | IC50 [2] | Structure (SMILES) |
| --- | --- | --- |
| > 150 µM | 0.131 µM | [2H]C([2H])([2H])n1c(=O)cc(N2C[C@@H](CC)N(C(C)c3ccc(F)cc3C(F)(F)F)C[C@@H]2CC)c2nn(CC#N)cc21 (stereo partly drawn) [Compound A276, 2-(7-((2S,5R)-2,5-diethyl-4-(1-(4-fluoro-2-(trifluoromethyl)phenyl)ethyl)piperazin-1-yl)-4-(methyl-d3)-5-oxo-4,5-dihydro-2H-pyrazolo[4,3-b]pyridin-2-yl)acetonitrile] |
| > 10 µM | 2.11 µM | CC[C@H]1CN(C(C)c2ccc(Cl)cc2C(F)(F)F)[C@H](CC)CN1c1cc(=O)n(C)c2cn(CC#N)nc12 (stereo partly shown) [Compound A277] |
| 55.1 µM | 0.064 µM | CCc1cnc2ccc(C(C)N3C[C@H](C)N(c4cc(=O)n(C)c5cn(CC#N)nc45)C[C@H]3C)cc2n1 (stereo partly drawn) [Compound A278, 2-(7-((2S,5R)-4-(1-(3-ethylquinoxalin-6-yl)ethyl)-2,5-dimethylpiperazin-1-yl)-4-methyl-5-oxo-4,5-dihydro-2H-pyrazolo[4,3-b]pyridin-2-yl)acetonitrile] |
| > 10 µM | > 10 µM | CC(c1ccc2ncc(O)nc2c1)N1C[C@H](C)N(c2cc(=O)n(C)c3cn(CC#N)nc23)C[C@H]1C (stereo partly drawn) [Compound A279, 2-(7-((2S,5R)-4-(1-(3-hydroxyquinoxalin-6-yl)ethyl)-2,5-dimethylpiperazin-1-yl)-4-methyl-5-oxo-4,5-dihydro-2H-pyrazolo[4,3-b]pyridin-2-yl)acetonitrile] |
| 26 µM | 0.034 µM | CC(c1ccc2ncc(Cl)nc2c1)N1C[C@H](C)N(c2cc(=O)n(C)c3cn(CC#N)nc23)C[C@H]1C (stereo partly drawn) [Compound A280, 2-(7-((2S,5R)-4-(1-(3-chloroquinoxalin-6-yl)ethyl)-2,5-dimethylpiperazin-1-yl)-4-methyl-5-oxo-4,5-dihydro-2H-pyrazolo[4,3-b]pyridin-2-yl)acetonitrile] |
| 12.4 µM | 0.881 µM | COc1cnc2cc(C(C)N3C[C@H](C)N(c4cc(=O)n(C)c5cn(CC#N)nc45)C[C@H]3C)ccc2n1 (stereo partly drawn) [Compound A283, 2-(7-((2S,5R)-4-(1-(2-methoxyquinoxalin-6-yl)ethyl)-2,5-dimethylpiperazin-1-yl)-4-methyl-5-oxo-4,5-dihydro-2H-pyrazolo[4,3-b]pyridin-2-yl)acetonitrile] |
| 6.48 µM | > 10 µM | CC(c1ccc2nc(O)cnc2c1)N1C[C@H](C)N(c2cc(=O)n(C)c3cn(CC#N)nc23)C[C@H]1C (stereo partly drawn) [Compound A284, 2-(7-((2S,5R)-4-(1-(2-hydroxyquinoxalin-6-yl)ethyl)-2,5-dimethylpiperazin-1-yl)-4-methyl-5-oxo-4,5-dihydro-2H-pyrazolo[4,3-b]pyridin-2-yl)acetonitrile] |
| > 10 µM | > 10 µM | CC(c1ccc(F)cc1P(C)(C)=O)N1C[C@H](C)N(c2cc(=O)n(C)c3cn(CC#N)nc23)C[C@H]1C (stereo partly shown) [Compound A285] |
| 3.4 µM | 0.263 µM | CC[C@H]1CN(C(C)c2ccc(F)c(F)c2C(F)(F)F)[C@H](CC)CN1c1cc(=O)n(C)c2cn(CC#N)nc12 (stereo partly shown) [Compound A288] |
| > 10 µM | 1.13 µM | CC[C@H]1CN(C(C)c2ccc(F)cc2C(N)=O)[C@H](CC)CN1c1cc(=O)n(C)c2cn(CC#N)nc12 (stereo partly shown) [Compound A289] |
| 56.4 µM | 0.425 µM | CC[C@H]1CN(C(C)c2ccc(F)cc2C(=O)OC)[C@H](CC)CN1c1cc(=O)n(C)c2cn(CC#N)nc12 (stereo partly shown) [Compound A290] |
| > 150 µM | 1.91 µM | CC[C@H]1CN(C(C)c2ccc(F)cc2C(=O)N(C)C)[C@H](CC)CN1c1cc(=O)n(C)c2cn(CC#N)nc12 (stereo partly shown) [Compound A292] |
| 9.95 µM | 0.237 µM | CCC(c1ccc(F)cc1C(F)(F)F)N1C[C@H](CC)N(c2cc(=O)n(C)c3cn(CC#N)nc23)C[C@H]1CC (stereo partly shown) [Compound A293] |
| 69.6 µM | 3.86 µM | Cc1nc2ccc(C(C)N3C[C@H](C)N(c4cc(=O)n(C)c5cn(CC#N)nc45)C[C@H]3C)cc2nc1C (stereo partly drawn) [Compound A294, 2-(7-((2S,5R)-4-(1-(2,3-dimethylquinoxalin-6-yl)ethyl)-2,5-dimethylpiperazin-1-yl)-4-methyl-5-oxo-4,5-dihydro-2H-pyrazolo[4,3-b]pyridin-2-yl)acetonitrile] |
| 5.69 µM | 0.563 µM | CCO[C@@H]1CN(c2cc(=O)n(C)c3cn(CC#N)nc23)CC[C@H]1Oc1cccc(C(F)(F)F)c1 [Compound A295, 2-(7-((3R,4R)-3-ethoxy-4-(3-(trifluoromethyl)phenoxy)piperidin-1-yl)-4-methyl-5-oxo-4,5-dihydro-2H-pyrazolo[4,3-b]pyridin-2-yl)acetonitrile] |
| 3.9 µM | 0.189 µM | CC[C@H]1CN(C(C(=O)NCCOC)c2ccc(C(F)(F)F)cc2)[C@H](CC)CN1c1cc(=O)n(C)c2cn(CC#N)nc12 (stereo partly drawn) [Compound A296, 2-((2R,5S)-4-(2-(cyanomethyl)-4-methyl-5-oxo-4,5-dihydro-2H-pyrazolo[4,3-b]pyridin-7-yl)-2,5-diethylpiperazin-1-yl)-N-(2-methoxyethyl)-2-(4-(trifluoromethyl)phenyl)acetamide] |
| 8.18 µM | > 10 µM | C[C@@H]1CN(c2cc(=O)n(C)c3cn(CC#N)nc23)[C@@H](C)CN1C(C)(C)c1ccc(F)cc1 [Compound A297, 2-(7-((2S,5R)-4-(2-(4-fluorophenyl)propan-2-yl)-2,5-dimethylpiperazin-1-yl)-4-methyl-5-oxo-4,5-dihydro-2H-pyrazolo[4,3-b]pyridin-2-yl)acetonitrile] |
| > 150 µM | 8.91 µM | Cc1cnc2ccc(N(C)C3CC(C)N(c4cc(=O)n(C)c5cn(CC#N)nc45)CC3C)cc2n1 (stereo not shown) [Compound A298, 2-(7-(2,5-dimethyl-4-(methyl(3-methylquinoxalin-6-yl)amino)piperidin-1-yl)-4-methyl-5-oxo-4,5-dihydro-2H-pyrazolo[4,3-b]pyridin-2-yl)acetonitrile] |
| > 150 µM | 0.131 µM | C=CCn1cc2c(n1)c(N1C[C@@H](C)N([C@@H](C)c3ccc4ncc(C)nc4c3)C[C@@H]1C)cc(=O)n2C [Compound A301, 2-allyl-7-((2S,5R)-2,5-dimethyl-4-((S)-1-(3-methylquinoxalin-6-yl)ethyl)piperazin-1-yl)-4-methyl-2,4-dihydro-5H-pyrazolo[4,3-b]pyridin-5-one] |
| 35.4 µM | 0.068 µM | CC=CCn1cc2c(n1)c(N1C[C@@H](C)N([C@@H](C)c3ccc4ncc(C)nc4c3)C[C@@H]1C)cc(=O)n2C [Compound A302, 2-(but-2-en-1-yl)-7-((2S,5R)-2,5-dimethyl-4-((S)-1-(3-methylquinoxalin-6-yl)ethyl)piperazin-1-yl)-4-methyl-2,4-dihydro-5H-pyrazolo[4,3-b]pyridin-5-one] |
| 102 µM | 0.019 µM | Cc1cnc2ccc([C@H](C)N3C[C@H](C)N(c4cc(=O)n(C)c5cn(CC=C(F)F)nc45)C[C@H]3C)cc2n1 [Compound A303, 2-(3,3-difluoroallyl)-7-((2S,5R)-2,5-dimethyl-4-((S)-1-(3-methylquinoxalin-6-yl)ethyl)piperazin-1-yl)-4-methyl-2,4-dihydro-5H-pyrazolo[4,3-b]pyridin-5-one] |
| 1.49 µM | 1.19 µM | CC(c1cc2ccccc2cn1)N1C[C@H](C)N(c2cc(=O)n(C)c3cn(CC#N)nc23)C[C@H]1C (stereo partly shown) [Compound A305] |
| 18.2 µM | 0.495 µM | Cc1ccc2ccc(C(C)N3C[C@H](C)N(c4cc(=O)n(C)c5cn(CC#N)nc45)C[C@H]3C)cc2n1 (stereo partly shown) [Compound A306] |
| 2.47 µM | 1.75 µM | CC(c1ccc2ccc(C#N)cc2c1)N1C[C@H](C)N(c2cc(=O)n(C)c3cn(CC#N)nc23)C[C@H]1C (stereo partly shown) [Compound A307] |
| 88.3 µM | 0.072 µM | Cc1cnc2ccc([C@H](C)N3C[C@H](C)N(c4cc(=O)[nH]c5cn(CC#N)nc45)C[C@H]3C)cc2n1 [Compound A308] |
| 108 µM | 0.88 µM | CC(c1ccc2ncc(CO)nc2c1)N1C[C@H](C)N(c2cc(=O)n(C)c3cn(CC#N)nc23)C[C@H]1C (stereo partly drawn) [Compound A309, 2-(7-((2S,5R)-4-(1-(3-(hydroxymethyl)quinoxalin-6-yl)ethyl)-2,5-dimethylpiperazin-1-yl)-4-methyl-5-oxo-4,5-dihydro-2H-pyrazolo[4,3-b]pyridin-2-yl)acetonitrile] |
| 94.7 µM | 0.127 µM | CC(c1ccc2ncc(C3CC3)nc2c1)N1C[C@H](C)N(c2cc(=O)n(C)c3cn(CC#N)nc23)C[C@H]1C (stereo partly drawn) [Compound A310, 2-(7-((2S,5R)-4-(1-(3-cyclopropylquinoxalin-6-yl)ethyl)-2,5-dimethylpiperazin-1-yl)-4-methyl-5-oxo-4,5-dihydro-2H-pyrazolo[4,3-b]pyridin-2-yl)acetonitrile] |
| 6.63 µM | 0.041 µM | CC(c1ccc2ncc(C(F)F)nc2c1)N1C[C@H](C)N(c2cc(=O)n(C)c3cn(CC#N)nc23)C[C@H]1C (stereo partly drawn) [Compound A311, 2-(7-((2S,5R)-4-(1-(3-(difluoromethyl)quinoxalin-6-yl)ethyl)-2,5-dimethylpiperazin-1-yl)-4-methyl-5-oxo-4,5-dihydro-2H-pyrazolo[4,3-b]pyridin-2-yl)acetonitrile] |
| 66 µM | 0.238 µM | CC(c1ccc2ncc(C(C)(F)F)nc2c1)N1C[C@H](C)N(c2cc(=O)n(C)c3cn(CC#N)nc23)C[C@H]1C (stereo partly drawn) [Compound A312, 2-(7-((2S,5R)-4-(1-(3-(1,1-difluoroethyl)quinoxalin-6-yl)ethyl)-2,5-dimethylpiperazin-1-yl)-4-methyl-5-oxo-4,5-dihydro-2H-pyrazolo[4,3-b]pyridin-2-yl)acetonitrile] |
